pIC50: −log10 of the molar value.
Tests used:
[1] = Cytotoxicity against human U87 cells assessed as inhibition of cell proliferation after 72 hrs; type: functional, cell-based, U-87MG ATCC; details: U-87 MG
K562 = experiment: Cytotoxicity against human K562 cells assessed as inhibition of cell proliferation after 72 hrs; type: functional, cell-based; details: K562, 72 h
Tubulin (Homo sapiens) = Tubulin (Homo sapiens) (UniProt P68371+Q9H4B7+P0DPH7+P68366+Q13509+Q71U36+P04350+Q3ZCM7+P07437+P68363+Q9BQE3+Q6PEY2+Q13885+Q9BVA1+Q9BUF5); experiment: (§1) Inhibition of tubulin (unknown origin) polymerization at 10 mg/ml; type: protein-complex assay
[2] = Cytotoxicity against human HCT116 cells assessed as inhibition of cell proliferation after 72 hrs; type: functional, cell-based; details: HCT-116, 72 h
Tubulin [3] = experiment: Inhibition of tubulin (unknown origin) polymerization; type: protein-complex assay, Homo sapiens
Tubulin [4] = experiment: as §1; type: protein-complex assay, Homo sapiens

Compound | inhibition (Tubulin (Homo sapiens)) [%] | pIC50 (Tubulin [3]) | pIC50 (Tubulin [4]) | pIC50 [1] | pIC50 (K562) | pIC50 [2]
CCC1=CC2CN(/C=C(/C(=O)OC)Cc3c([nH]c4ccc(C=O)cc34)[C@@](C(=O)OC)(c3cc4c(cc3OC)N(C)[C@H]3[C@@](O)(C(=O)OC)[C@H](OC(C)=O)[C@]5(CC)C=CCN6CC[C@]43[C@@H]65)C2)C1 (stereo partly specified) | 11 |  |  | 7.64 | 7.40 | 6.57
CCC1=C[C@@H]2CN(C1)Cc1c([nH]c3ccccc13)[C@@](C(=O)OC)(c1cc3c(cc1OC)N(C)[C@H]1[C@@](O)(C(=O)OC)[C@H](OC(C)=O)[C@]4(CC)C=CCN5CC[C@]31[C@@H]54)C2 [VINORELBINE] |  | 6.15 |  | 8.46 |  | 7.82
CCC1=CC2CN(/C=C(/C(=O)OC)Cc3c([nH]c4ccc(C)cc34)[C@@](C(=O)OC)(c3cc4c(cc3OC)N(C)[C@H]3[C@@](O)(C(=O)OC)[C@H](OC(C)=O)[C@]5(CC)C=CCN6CC[C@]43[C@@H]65)C2)C1 (stereo partly specified) | 23 |  |  | 7.96 | 7.70 | 7.30
C#Cc1ccc2[nH]c3c(c2c1)C/C(C(=O)OC)=C\N1CC(CC)=CC(C1)C[C@]3(C(=O)OC)c1cc2c(cc1OC)N(C)[C@H]1[C@@](O)(C(=O)OC)[C@H](OC(C)=O)[C@]3(CC)C=CCN4CC[C@]21[C@@H]43 (stereo partly specified) | 27 |  |  | 5.80 | 6.22 | 5.60
CC[C@]1(O)C[C@@H]2CN(CCc3c([nH]c4ccccc34)[C@@](C(=O)OC)(c3cc4c(cc3OC)N(C)[C@H]3[C@@](O)(C(=O)OC)[C@H](OC(C)=O)[C@]5(CC)C=CCN6CC[C@]43[C@@H]65)C2)C1 [VINBLASTINE] |  |  |  | 9.00 | 8.00 | 8.70
CCC1=CC2CN(/C=C(/C(=O)OC)Cc3c([nH]c4ccc(Br)cc34)[C@@](C(=O)OC)(c3cc4c(cc3OC)N(C)[C@H]3[C@@](O)(C(=O)OC)[C@H](OC(C)=O)[C@]5(CC)C=CCN6CC[C@]43[C@@H]65)C2)C1 (stereo partly specified) | 23 |  |  | 5.52 | 6.30 | 5.52
CCC1=CC2CN(/C=C(/C(=O)OC)Cc3c([nH]c4ccc(I)cc34)[C@@](C(=O)OC)(c3cc4c(cc3OC)N(C)[C@H]3[C@@](O)(C(=O)OC)[C@H](OC(C)=O)[C@]5(CC)C=CCN6CC[C@]43[C@@H]65)C2)C1 (stereo partly specified) |  |  | 5.21 | 5.30 | 6.00 | 5.15

Second part, led by results:

inhibition (Tubulin (Homo sapiens)) [%] | pIC50 (Tubulin [3]) | pIC50 (Tubulin [4]) | Compound | pIC50 [1] | pIC50 (K562) | pIC50 [2]
0 |  |  | CCC1=CC2CN(C1)/C(C(=O)NC(C)C)=C(/C(=O)OC)Cc1c([nH]c3ccc(C)cc13)[C@@](C(=O)OC)(c1cc3c(cc1OC)N(C)[C@H]1[C@@](O)(C(=O)OC)[C@H](OC(C)=O)[C@]4(CC)C=CCN5CC[C@]31[C@@H]54)C2 (stereo partly specified) | 7.48 | 9.00 | 7.70
16 |  |  | C#Cc1ccc2[nH]c3c(c2c1)C/C(C(=O)OC)=C(/C(=O)NC(C)C)N1CC(CC)=CC(C1)C[C@]3(C(=O)OC)c1cc2c(cc1OC)N(C)[C@H]1[C@@](O)(C(=O)OC)[C@H](OC(C)=O)[C@]3(CC)C=CCN4CC[C@]21[C@@H]43 (stereo partly specified) | 5.70 | 6.22 | 5.52
25 |  |  | CCC1=CC2CN(C1)/C(C(=O)NC(C)C)=C(/C(=O)OC)Cc1c([nH]c3ccc(C=O)cc13)[C@@](C(=O)OC)(c1cc3c(cc1OC)N(C)[C@H]1[C@@](O)(C(=O)OC)[C@H](OC(C)=O)[C@]4(CC)C=CCN5CC[C@]31[C@@H]54)C2 (stereo partly specified) | 6.92 | 7.80 | 7.33
44 |  |  | CCC1=CC2CN(C1)/C(C(=O)NC(C)C)=C(/C(=O)OC)Cc1c([nH]c3ccc(I)cc13)[C@@](C(=O)OC)(c1cc3c(cc1OC)N(C)[C@H]1[C@@](O)(C(=O)OC)[C@H](OC(C)=O)[C@]4(CC)C=CCN5CC[C@]31[C@@H]54)C2 (stereo partly specified) | 5.52 |  | 5.30
